Reference: ChEMBL document CHEMBL6177985, “Discovery of Novel Cyclic Peptides as SMAD2-SMAD4 Interaction Inhibitors for the Treatment of Hepatic Fibrosis” (J Med Chem, 2025)
Active and inactive are the calls of the source. The calls are words filed in the database; no cut-off is given here.

Assays:
LX-2 [1] = assay: Antifibrotic activity against TGF-beta1 stimulated human LX-2 cells assessed as reduction in COL1A1 expression at 100 uM incubated for 24 hrs by Western blotting analysis; type: functional, cell-based
LX-2 [2] = assay: Antifibrotic activity against TGF-beta1 stimulated human LX-2 cells assessed as reduction in alpha-SMA expression at 100 uM incubated for 24 hrs by Western blotting analysis; type: functional, cell-based
Homo sapiens = species: Homo sapiens; assay: Inhibition of TGF-beta induced his tagged human SMAD2/human SMAD4 interaction at 100 uM incubated for 1 hr followed by anti-His-HRP addition and measured after 1 hr by blocking assay relative to control; conditions: time 2.0 hrs
LX-2 [3] = assay: Downregulation of TGF-beta induced SMAD2 phosphorylation level in human LX-2 cells at 100 uM by Immunoblot analysis; type: functional, cell-based
LX-2 [4] = assay: Downregulation of TGF-beta induced P65 phosphorylation level in human LX-2 cells at 100 uM by Immunoblot analysis; type: functional, cell-based
LX-2 [5] = assay: Downregulation of TGF-beta induced alpha-SMA level in human LX-2 cells at 100 uM by Immunoblot analysis; type: functional, cell-based
LX-2 [6] = assay: Downregulation of TGF-beta induced COL1A1 level in human LX-2 cells at 100 uM by Immunoblot analysis; type: functional, cell-based
[7] = Stability in rat serum measured up to 48 hrs by LC-MS/MS analysis; type: ADME, cell-free
LX-2 [8] = assay: Inhibition of TGF-beta induced SMAD3 phosphorylation level in human LX-2 cells at 100 uM by Western blot analysis; type: functional, cell-based
LX-2 [9] = assay: Inhibition of TGF-beta induced SMAD1/5/8 phosphorylation level in human LX-2 cells at 100 uM by Western blot analysis; type: functional, cell-based
Mus musculus [10] = assay: Anti-fibrotic activity against CCl4-induced liver fibrosis male C57BL/6J mouse model assessed as effect on SMAD3 phosphorylation in liver at 400 microg/kg, ip measured for 3 weeks by Western blot analysis; type: functional, organism-based; conditions: dose 400.0 µg/kg
Mus musculus [11] = assay: Anti-fibrotic activity against CCl4-induced liver fibrosis male C57BL/6J mouse model assessed as effect on SMAD1/5/8 phosphorylation in liver at 400 microg/kg, ip measured for 3 weeks by Western blot analysis; type: functional, organism-based; conditions: dose 400.0 µg/kg

Row | Compound | inhibition (Homo sapiens) [%] | Activity (LX-2 [1]) | Activity (LX-2 [2]) | further results
1 | C[C@H](NC(=O)[C@@H]1CCCN1C(=O)[C@H](CCCNC(=N)N)NC(=O)[C@@H](N)[C@@H](C)O)C(=O)N[C@@H](CO)C(=O)N[C@H](Cc1ccccc1)C(=O)N[C@@H](Cc1c[nH]c2ccccc12)C(=O)N[C@@H](CCC(=O)O)C(=O)N[C@H](C(=O)N[C@@H](CO)C(=O)O)[C@@H](C)O | 71.3 | Active | Active | Activity (LX-2 [3]): Active; Activity (LX-2 [4]): Active; Activity (LX-2 [5]): Active; Activity (LX-2 [6]): Active; Stability [7]: Stable
2 | C[C@@H]1NC(=O)[C@@H]2CCCN2C(=O)[C@H](CCCNC(=N)N)NC(=O)[C@H]([C@@H](C)O)NC(=O)[C@H](CO)NC(=O)[C@H]([C@@H](C)O)NC(=O)[C@H](CCC(=O)O)NC(=O)[C@H](Cc2c[nH]c3ccccc23)NC(=O)[C@H](Cc2ccccc2)NC(=O)[C@@H](CO)NC1=O | 27.9 | Active | Active | 
3 | C[C@@H]1NC(=O)[C@@H]2CCCN2C(=O)[C@H](CCCNC(=N)N)NC(=O)[C@H]([C@@H](C)O)NC(=O)[C@H](CO)NC(=O)[C@H]([C@@H](C)O)NC(=O)[C@H](CCC(=O)O)NC(=O)[C@H](Cc2c[nH]c3ccccc23)NC(=O)[C@H](Cc2ccccc2)NC(=O)[C@H](CO)NC1=O | 42.7 | Active; Compound Showed Marginal Reduction Compared To M10 | Active; Compound Showed Marginal Reduction Compared To M10 | 
4 | C[C@H](NC(=O)[C@@H]1CCCN1C(=O)[C@H](CCCNC(=N)N)NC(=O)[C@@H](N)[C@@H](C)O)C(=O)N[C@@H](CO)C(=O)N[C@@H](Cc1ccccc1)C(=O)N[C@@H](Cc1c[nH]c2ccccc12)C(=O)N[C@@H](CCC(=O)O)C(=O)N[C@H](C(=O)N[C@@H](CO)C(=O)O)[C@@H](C)O | 52.5 | Active | Active | inhibition (LX-2 [8]): inactive; inhibition (LX-2 [9]): inactive; Activity (Mus musculus [10]): inactive; Activity (Mus musculus [11]): inactive
5 | C[C@H](NC(=O)[C@@H]1CCCN1C(=O)[C@H](CCCNC(=N)N)NC(=O)[C@@H](N)[C@@H](C)O)C(=O)N[C@H](CO)C(=O)N[C@@H](Cc1ccccc1)C(=O)N[C@@H](Cc1c[nH]c2ccccc12)C(=O)N[C@@H](CCC(=O)O)C(=O)N[C@H](C(=O)N[C@@H](CO)C(=O)O)[C@@H](C)O | 60.5 | Active | Active | 
6 | Ac-TRPASFWETS-OH | 51.9 | inactive | inactive | 
7 | H-ARPASFWETS-OH | 12.5 | inactive | inactive | 
8 | H-TRPAEFWETS-OH | 24.2 | inactive | inactive | 
9 | H-TRPAFFWETS-OH | 34.7 | inactive | inactive | 
10 | H-TRPAKFWETS-OH | 32.5 | inactive | inactive | 
11 | H-TRPAQFWETS-OH | 31.9 | inactive | inactive | 
12 | H-TRPARFWETS-OH | 17.4 | inactive | inactive | 
13 | H-TRPASAWETS-OH | 52.7 | Active | Active | 
14 | H-TRPASFAETS-OH | 6.5 | inactive | inactive | 
15 | H-TRPASFWATS-OH | 11.2 | inactive | inactive | 
16 | H-TRPASFWEAS-OH | 9.3 | inactive | inactive | 
17 | H-TRPASFWETS-NH2 | 49.8 | inactive | inactive | 
18 | H-TRPASNWETS-OH | 31.3 | inactive | inactive | 
19 | H-TRPASQWETS-OH | 32.4 | inactive | inactive | 
20 | H-TRPASRWETS-OH | 27.1 | inactive | inactive | 
21 | H-TRPASYWETS-OH | 20.7 | inactive | inactive | 
22 | H-TRPAWFWETS-OH | 21.3 | inactive | inactive | 

Second part, led by results:

Row | inhibition (Homo sapiens) [%] | Compound | Activity (LX-2 [1]) | Activity (LX-2 [2]) | further results
23 | 8.6 | H-TAPASFWETS-OH | inactive | inactive | 
24 | 16.3 | H-TRAASFWETS-OH | inactive | inactive | 
25 | 46.2 | H-TRPAAFWETS-OH | Active | Active | 
26 | 6.1 | H-TRPADFWETS-OH | inactive | inactive | 
27 | 42.6 | H-TRPANFWETS-OH | inactive | inactive | 
28 | 23.6 | H-TRPASDWETS-OH | inactive | inactive | 
29 | 10.9 | H-TRPASEWETS-OH | inactive | inactive | 
30 | 14.5 | H-TRPASFWETA-OH | inactive | inactive | 
31 | 35.2 | H-TRPASKWETS-OH | inactive | inactive | 
32 | 43.8 | H-TRPASWWETS-OH | inactive | inactive | 
